Test results from patent publication US10869931B2, “Polyethylene glycol-modified angiogenesis inhibitor HM-1 and application thereof” (NANJING ANJI BIOLOGICAL TECHNOLOGY CO.,LTD, priority 2016, dated 2020).
Marks after values point to notes of the source that are not given here. Where no end group is shown, it is not given here.

Key:
[1] = test system: Head and neck cancer tumor cells; experiment: MTT proliferation inhibition, head and neck cancer cells; format: cell-based, human; parameters: concentration or dose not given beside the values; conditions: 48 h
Experimental: (§1) The activity of mPEG-HM-1 to inhibit the growth of various tumor cells was examined by MTT assay. The tumor cells were cultured to a concentration of 90% or more in a 37° C., 5% CO2 incubator and collected by trypsinization. The cells were resuspended in the culture medium and counted under a microscope to adjust the cell concentration to 2×10^4 cells/mL, the cell suspension was inoculated into a 96-well plate at 100 μL/well and incubated overnight at 37° C. in a 5% CO2 incubator. mPEG-HM-1 was diluted with the culture solution to each predetermined concentration. Docetaxel is diluted to the final concentration with the culture medium. After the cells were fully attached, each dilution was added to a 96-well plate (100 μL/well). The mPEG-HM-1 dilution was added as a drug-administered group, and docetaxel was added as a positive control group, and a culture solution without any drug was used as a negative control group. Incubate for 48 h at 37° C. in a 5% CO2 incubator. 5 mg/mL of MTT was added to a 96-well plate at 20 μL per well, and incubation was continued for 4 hours. The medium was aspirated, dissolved in 150 μL of DMSO per well, and gently mixed by shaking for 10 min. The absorbance was measured at a measurement wavelength of 570 nm and a reference wavelength of 630 nm using a microplate reader, and the rate of growth inhibition (proliferation inhibition, PI) was calculated. The formula is as follows: PI (%)=1−administration group/negative group
(§2) The test was repeated 3 times independently, and the results obtained by the test were expressed as mean±SD, and the test results are shown in Table 15 to Table 18.

Brain tumor cells = experiment: MTT proliferation inhibition, brain tumor cells; format: cell-based, human; parameters: concentration or dose not given beside the values; conditions: 48 h
Experimental: as §1, §2

[2] = test system: Thyroid cancer tumor cells; experiment: MTT proliferation inhibition, thyroid cancer cells; format: cell-based, human; parameters: concentration or dose not given beside the values; conditions: 48 h
Experimental: as §1, §2

[3] = test system: Ovarian cancer tumor cells; experiment: MTT proliferation inhibition, ovarian cancer cells; format: cell-based, human; parameters: concentration or dose not given beside the values; conditions: 48 h
Experimental: as §1, §2

[4] = test system: Prostate cancer tumor cells; experiment: MTT proliferation inhibition, prostate cancer cells; format: cell-based, human; parameters: concentration or dose not given beside the values; conditions: 48 h
Experimental: as §1, §2

Melanoma tumor cells = experiment: MTT proliferation inhibition, melanoma cells; format: cell-based, human; parameters: concentration or dose not given beside the values; conditions: 48 h
Experimental: as §1, §2

mouse spleen lymphocytes = experiment: ConA-stimulated mouse spleen lymphocyte proliferation (MTT); format: cell-based; conditions: ConA 5 μg/mL, 48 h
Experimental: Tris-NH4Cl was used to break the red blood cells, and the cells were allowed to stand in an ice water bath for 4 min, centrifuged (1000 rpm×5 min), the supernatant was discarded, and the cells were washed twice with sterile PBS. Finally, cells were suspended in RPMI 1640 medium (5 mL) supplemented with 10% calf serum, counted, adjusted to a cell concentration of 5×10^6/mL, and cultured in a 96-well culture plate The test group consisted of blank control group, concanavalin A (ConA) group, dexamethasone (Dex) group (0.02 mg/mL) and mPEG-HM-1 group. […] The cells were cultured in a 37° C. cell culture chamber for 48 h. After the completion of the culture, 20 μL of MTT was added to each well, and the culture was continued for 4 h. Finally, all the solutions in each well were discarded, 100 μL of DMSO was added to each well, and the mixture was shaken and detected by a microplate reader OD value at 570 nm, 5 parallels per hole.

[5] = test system: xylene-induced ear swelling in Kunming mice; experiment: Xylene-induced ear swelling in mice; format: in vivo, mouse; conditions: for Inhibition rate: ear swelling vs control
Experimental: Kunming mice were used. The saline group was used as the blank control group, the aspirin group (200 mg/kg) as the positive control group, and the mPEG-HM-1 administration group as the experimental group. Mice were administered once daily for 5 consecutive days. The blank control group was given an equal volume of physiological saline. One hour after the last administration, 0.05 mL of xylene was applied to both sides of the right ear of the mice to cause inflammation, and the left ear was not coated as normal ears. After 2 h, the mice were sacrificed by dislocation, and the ears were cut along the auricle. Ear pieces were taken with a puncher, weighed, and the swelling degree and swelling rate were calculated. Swelling degree=right ear piece weight-left ear piece weight, swelling rate=(swelling degree/left ear piece weight)×100%. Statistical t-test was performed on the test results, *P<0.05 was a significant difference, and **P<0.01 was a very significant difference. See Table 31 to Table 34 for the results.

[6] = test system: collagen induced arthritis (CIA) in DBA/1 mice; experiment: Collagen-induced mouse arthritis (CIA) model; format: in vivo; conditions: for Joint swelling / Left and right paw swelling / Clinical score: CIA DBA/1 mice; for Clinical score: maximum score 16
[7] = test system: neovascularization in rat model of premature retinopathy; experiment: Fluctuating-oxygen rat model of premature retinopathy (endothelial nuclei count); format: in vivo; conditions: day 14
Experimental: A fluctuating oxygen-induced animal model was used to randomly divide the newborn rats that were naturally delivered on the same day (within 12 hours) into three groups: the oxygenated model group, the oxygenated treatment group, and the normal control group. The oxygenated model group was subdivided into three subgroup models and along with the oxygenated treatment group was placed in a semi-closed oxygen chamber made of plexiglass. The chamber was connected to medical oxygen, and the oxygen analyzer was adjusted to a concentration of 80%±2%. After 24 hours, Nitrogen gas was introduced into the oxygen chamber, and the oxygen concentration was adjusted to 10%±2% and maintained for 24 h. This process was repeated, so that the oxygen concentration in the oxygen chamber is switched between 80% and 10% every 24 hours, and then transferred to the air for 7 days. The oxygen concentration was monitored 8 times a day, and the ambient temperature in the control cabin was 23° C.±2° C. Bedding change, adding food, changing water and replacing mother rats were performed once a day. The normal control group was placed in an animal facility environment. […] The oxygenated therapeutic components were divided into four subgroups, and on the 7th day of modeling, mPEG-SC-HM-1, mPEG2-NHS-HM-1, mPEG-ALD10k-HM-1, and mPEG-bALD-HM-1 were respectively administered by intravitreal injection. Only normal saline was administered to the oxygen model group and the control group. The administrations continued for 1 week. […] After immersion in wax, serial section at thickness of 4 μm was performed, wherein the sections were kept away from the optic disc. The sections are parallel to the sagittal plane of the cornea to the optic disc. Ten sections per eyeball were randomly selected from each eyeball to be stained with hematoxylin and eosin, and the number of vascular endothelial cells that broke through the retinal inner membrane was counted (only the vascular endothelial nucleus closely related to the inner retinal membrane was counted), and the average numbers of endothelial cells per eyeball per slice was counted.

[8] = 10 mg/kg once daily for 5 days, 2 h after xylene
[9] = 20 mg/kg once daily for 5 days, 2 h after xylene
[10] = 10 mg/kg subcutaneous from day 30 of modeling
[11] = 40 mg/kg once daily for 5 days, 2 h after xylene
[12] = 20 mg/kg subcutaneous from day 30 of modeling
[13] = 80 mg/kg once daily for 5 days, 2 h after xylene
[14] = 40 mg/kg subcutaneous from day 30 of modeling
[15] = 80 mg/kg subcutaneous from day 30 of modeling

Row | Substance | rate of growth inhibition [1] | rate of growth inhibition (Brain tumor cells) | rate of growth inhibition [2] | rate of growth inhibition [3] | rate of growth inhibition [4] | rate of growth inhibition (Melanoma tumor cells) | A570 nm/A630 nm (mouse spleen lymphocytes; 10 μg/mL) | Inhibition Rate of spleen lymphocyte proliferation (mouse spleen lymphocytes; 10 μg/mL) | A570 nm/A630 nm (mouse spleen lymphocytes; 20 μg/mL) | Inhibition Rate of spleen lymphocyte proliferation (mouse spleen lymphocytes; 20 μg/mL) | Swelling [5, 8] | Inhibition rate ([5]; 10 mg/kg once daily for 5 days) | Swelling [5, 9] | Inhibition rate ([5]; 20 mg/kg once daily for 5 days) | A570 nm/A630 nm (mouse spleen lymphocytes; 40 μg/mL) | Inhibition Rate of spleen lymphocyte proliferation (mouse spleen lymphocytes; 40 μg/mL) | Swelling [5, 11] | Inhibition rate ([5]; 40 mg/kg once daily for 5 days) | A570 nm/A630 nm (mouse spleen lymphocytes; 80 μg/mL) | Inhibition Rate of spleen lymphocyte proliferation (mouse spleen lymphocytes; 80 μg/mL) | other results
1 | mPEG2-NHS5k-Arg-Gly-Ala-Asp-Arg-Ala-Gly-Gly-Gly-Gly-Arg-Gly-Asp ({mPEG2‑NHS 5 kDa}-RGADRAGGGGRGD) [mPEG2-NHS5k-HM-1] | 37.13 ± 11.32% | 40.35 ± 10.29% | 36.23 ± 12.15% | 56.88 ± 21.07% | 39.33 ± 12.01% | 59.21 ± 18.93% | 0.5624 ± 0.1098 | 18.78% | 0.4873 ± 0.1126 | 29.62% | 4.94 ± 0.28* mg | 20.05% | 4.31 ± 0.20** mg | 30.23% |  |  |  |  |  |  | A570 nm/A630 nm (mouse spleen lymphocytes; 5 μg/mL): 0.6304 ± 0.0983; Inhibition Rate of spleen lymphocyte proliferation (mouse spleen lymphocytes; 5 μg/mL): 8.96%; Inhibition rate ([5]; 5 mg/kg once daily for 5 days): 10.02%; Swelling ([5]; 5 mg/kg once daily for 5 days, right minus left ear piece weight 2 h after xylene): 5.56 ± 0.19 mg; Joint swelling [6, 10]: 0.78 ± 0.12 mm; Left and right paw swelling [6, 10]: 0.76 ± 0.11 mm; Clinical score [6, 10]: 9.01 ± 1.28; Cell nuclei count ([7]; 25 μg intravitreal for 1 week from day 7, vascular endothelial nuclei breaking through inner retinal membrane per slice): 9.212 ± 3.134
2 | mPEG2-NHS10k-Arg-Gly-Ala-Asp-Arg-Ala-Gly-Gly-Gly-Gly-Arg-Gly-Asp ({mPEG2‑NHS 10 kDa}-RGADRAGGGGRGD) [mPEG2-NHS10k-HM-1] | 43.52 ± 11.16% | 47.62 ± 11.11% | 40.47 ± 12.03% | 60.69 ± 21.24% | 42.39 ± 12.65% | 65.89 ± 20.57% | 0.6239 ± 0.1086 | 9.90% | 0.5533 ± 0.1067 | 20.09% | 5.39 ± 0.14 mg | 12.76% | 4.72 ± 0.72* mg | 23.57% | 0.4747 ± 0.1174 | 31.44% | 4.13 ± 0.35** mg | 33.19% |  |  | Joint swelling [6, 12]: 0.75 ± 0.15 mm; Left and right paw swelling [6, 12]: 0.74 ± 0.14 mm; Clinical score [6, 12]: 8.83 ± 1.32; Cell nuclei count ([7]; 50 μg intravitreal for 1 week from day 7, vascular endothelial nuclei per slice): 8.786 ± 3.072
3 | mPEG2-NHS20k-Arg-Gly-Ala-Asp-Arg-Ala-Gly-Gly-Gly-Gly-Arg-Gly-Asp ({mPEG2‑NHS 20 kDa}-RGADRAGGGGRGD) [mPEG2-NHS20k-HM-1] | 46.18 ± 11.22% | 45.51 ± 10.15% | 43.68 ± 13.61% | 63.55 ± 19.60% | 47.75 ± 10.14% | 69.11 ± 21.79% |  |  | 0.6082 ± 0.0990 | 12.16% |  |  | 5.52 ± 0.16 mg | 10.65% | 0.4879 ± 0.1156 | 29.53% | 4.80 ± 0.29* mg | 22.37% | 0.4375 ± 0.1095 | 36.82% | Swelling [5, 13]: 3.96 ± 0.22** mg; Inhibition rate ([5]; 80 mg/kg once daily for 5 days): 35.92%; Joint swelling [6, 14]: 0.72 ± 0.16 mm; Left and right paw swelling [6, 14]: 0.75 ± 0.12 mm; Clinical score [6, 14]: 8.67 ± 1.35; limbs score (in words) ([6]; CIA mice, subcutaneous, once every three days, vs model control group): significantly lower than that of the model control group; Cell nuclei count ([7]; 100 μg intravitreal for 1 week from day 7, vascular endothelial nuclei per slice): 7.683 ± 2.914
4 | mPEG2-NHS40k-Arg-Gly-Ala-Asp-Arg-Ala-Gly-Gly-Gly-Gly-Arg-Gly-Asp ({mPEG2‑NHS 40 kDa}-RGADRAGGGGRGD) [mPEG2-NHS40k-HM-1] | 40.36 ± 10.53% | 42.56 ± 11.38% | 45.19 ± 14.07% | 61.59 ± 13.61% | 45.91 ± 11.74% | 66.72 ± 20.85% |  |  |  |  |  |  |  |  | 0.6191 ± 0.0984 | 10.59% | 5.47 ± 0.12 mg | 11.52% | 0.4985 ± 0.1248 | 28.01% | A570 nm/A630 nm (mouse spleen lymphocytes; 160 μg/mL): 0.4827 ± 0.1136; Inhibition Rate of spleen lymphocyte proliferation (mouse spleen lymphocytes; 160 μg/mL): 30.28%; Swelling [5, 13]: 4.83 ± 0.67* mg; Inhibition rate ([5]; 80 mg/kg once daily for 5 days): 21.88%; Swelling ([5]; 160 mg/kg once daily for 5 days, 2 h after xylene): 4.19 ± 0.34** mg; Inhibition rate ([5]; 160 mg/kg once daily for 5 days): 32.26%; Joint swelling [6, 15]: 0.76 ± 0.14 mm; Left and right paw swelling [6, 15]: 0.79 ± 0.15 mm; Clinical score [6, 15]: 8.98 ± 1.30; Cell nuclei count ([7]; 200 μg intravitreal for 1 week from day 7, vascular endothelial nuclei per slice): 8.495 ± 3.036
